Experimental data reported in ChEMBL document CHEMBL4130462, “Natural isoflavone biochanin A as a template for the design of new and potent 3-phenylquinolone efflux inhibitors against Mycobacterium avium” (Eur J Med Chem, 2017).
Converted amounts (≈) assume the structure as drawn.

Key:
[1] = test system: Mycolicibacterium smegmatis; assay: Antimycobacterial activity against Mycobacterium smegmatis str. MC2 155 assessed as reduction in bacterial viability incubated for 3 days by MTT assay; format: organism-based; conditions: 72 h
[2] = test system: Mycobacterium avium; assay: Antimycobacterial activity against Mycobacterium avium isolate MAV2 assessed as reduction in bacterial viability incubated for 3 days by MTT assay; format: organism-based; conditions: 72 h
[3] = test system: Mycobacterium avium; assay: Antimycobacterial activity against Mycobacterium avium isolate MAV3 assessed as reduction in bacterial viability incubated for 3 days by MTT assay; format: organism-based; conditions: 72 h
[4] = test system: Mycobacterium avium; conditions: in vivo, 72 h
Description: Antimycobacterial activity against Mycobacterium avium 104 mc'2 3 assessed as reduction in bacterial viability incubated for 3 days by MTT assay

[5] = test system: Mycobacterium avium; conditions: in vivo, 72 h; remark: listed apart in the source
Description: Antimycobacterial activity against Mycobacterium avium 104 mc'2 4 assessed as reduction in bacterial viability incubated for 3 days by MTT assay

[6] = test system: Mycobacterium avium; conditions: 104
Description: Inhibition of multidrug resistance efflux pump in Mycobacterium avium 104 assessed as potentiation of clarithromycin -induced antibacterial activity by measuring clarithromycin MIC at 1/2 MIC incubated for 3 days by MTT assay

[7] = test system: Mycobacterium avium; conditions: 104; remark: listed apart in the source
Description: Inhibition of multidrug resistance efflux pump in Mycobacterium avium 104 assessed as potentiation of clarithromycin -induced antibacterial activity by measuring clarithromycin MIC at 1/4 MIC incubated for 3 days by MTT assay

[8] = test system: Mycobacterium avium; conditions: 104 mc'2 3
[9] = test system: Mycobacterium avium; conditions: 104 mc'2 4
[10] = test system: Mycobacterium avium; conditions: 104 mc'2 4; remark: listed apart in the source
[11] = test system: Mycobacterium avium; conditions: isolate MAV1
[12] = test system: Mycobacterium avium; conditions: isolate MAV2
Description: Inhibition of multidrug resistance efflux pump in Mycobacterium avium isolate MAV2 assessed as potentiation of clarithromycin -induced antibacterial activity by measuring clarithromycin MIC at 1/4 MIC incubated for 3 days by MTT assay (Rvb = >1024 ug/ml)

[13] = test system: Mycobacterium avium; conditions: isolate MAV3
[14] = test system: Mycobacterium avium; conditions: isolate MAV3; remark: listed apart in the source
[15] = test system: Mycobacterium avium; conditions: isolate MAV4
Description: Inhibition of multidrug resistance efflux pump in Mycobacterium avium isolate MAV4 assessed as potentiation of clarithromycin -induced antibacterial activity by measuring clarithromycin MIC at 1/2 MIC incubated for 3 days by MTT assay

[16] = test system: Mycobacterium avium; conditions: isolate MAV4; remark: listed apart in the source
Description: Inhibition of multidrug resistance efflux pump in Mycobacterium avium isolate MAV4 assessed as potentiation of clarithromycin -induced antibacterial activity by measuring clarithromycin MIC at 1/4 MIC incubated for 3 days by MTT assay

[17] = test system: Mycobacterium avium subsp. avium ATCC 25291
Description: Inhibition of multidrug resistance efflux pump in Mycobacterium avium ATCC 25291 assessed as potentiation of clarithromycin -induced antibacterial activity by measuring clarithromycin MIC at 1/2 MIC incubated for 3 days by MTT assay

[18] = test system: Mycobacterium avium subsp. avium ATCC 25291; remark: listed apart in the source
Description: Inhibition of multidrug resistance efflux pump in Mycobacterium avium ATCC 25291 assessed as potentiation of clarithromycin -induced antibacterial activity by measuring clarithromycin MIC at 1/4 MIC incubated for 3 days by MTT assay

[19] = test system: Mycobacterium avium; conditions: 104; remark: listed apart in the source
[20] = test system: Mycobacterium avium; conditions: 104 mc'2 3; remark: listed apart in the source
[21] = test system: Mycobacterium avium; conditions: 104 mc'2 3; remark: listed apart in the source
[22] = test system: Mycobacterium avium; conditions: 104 mc'2 4; remark: listed apart in the source
[23] = test system: Mycobacterium avium; conditions: isolate MAV1; remark: listed apart in the source
[24] = test system: Mycobacterium avium; conditions: isolate MAV2; remark: listed apart in the source
[25] = test system: Mycobacterium avium; conditions: isolate MAV2; remark: listed apart in the source
[26] = test system: Mycobacterium avium; conditions: isolate MAV3; remark: listed apart in the source
[27] = test system: Mycobacterium avium; conditions: isolate MAV3; remark: listed apart in the source
[28] = test system: Mycobacterium avium subsp. avium ATCC 25291; remark: listed apart in the source
[29] = test system: Mycobacterium avium subsp. avium ATCC 25291; remark: listed apart in the source
[30] = test system: Mycobacterium avium; conditions: 104; remark: listed apart in the source
[31] = test system: Mycobacterium avium; conditions: 104 mc'2 3; remark: listed apart in the source
[32] = test system: Mycobacterium avium; conditions: 104 mc'2 4; remark: listed apart in the source
[33] = test system: Mycobacterium avium; conditions: isolate MAV1; remark: listed apart in the source
[34] = test system: Mycobacterium avium; conditions: isolate MAV2; remark: listed apart in the source
[35] = test system: Mycobacterium avium; conditions: isolate MAV3; remark: listed apart in the source
[36] = test system: Mycobacterium avium; conditions: isolate MAV3; remark: listed apart in the source
[37] = test system: Mycobacterium avium; conditions: isolate MAV4; remark: listed apart in the source
[38] = test system: Mycobacterium avium subsp. avium ATCC 25291; remark: listed apart in the source
[39] = test system: Mycobacterium avium; conditions: 104; remark: listed apart in the source
[40] = test system: Mycobacterium avium; conditions: 104; remark: listed apart in the source
[41] = test system: Mycobacterium avium; conditions: 104 mc'2 4; remark: listed apart in the source
[42] = test system: Mycobacterium avium; conditions: isolate MAV1; remark: listed apart in the source
Description: Inhibition of multidrug resistance efflux pump in Mycobacterium avium isolate MAV1 assessed as potentiation of ciprofloxacin-induced antibacterial activity by measuring ciprofloxacin MIC at 1/2 MIC incubated for 3 days by MTT assay (Rvb = 2 ug/ml)

[43] = test system: Mycobacterium avium; conditions: isolate MAV1; remark: listed apart in the source
Description: Inhibition of multidrug resistance efflux pump in Mycobacterium avium isolate MAV1 assessed as potentiation of ciprofloxacin-induced antibacterial activity by measuring ciprofloxacin MIC at 1/4 MIC incubated for 3 days by MTT assay

[44] = test system: Mycobacterium avium; conditions: isolate MAV2; remark: listed apart in the source
[45] = test system: Mycobacterium avium; conditions: isolate MAV2; remark: listed apart in the source
[46] = test system: Mycobacterium avium; conditions: isolate MAV3; remark: listed apart in the source
[47] = test system: Mycobacterium avium; conditions: isolate MAV4; remark: listed apart in the source
[48] = test system: Mycobacterium avium; conditions: 104; remark: listed apart in the source
[49] = test system: Mycobacterium avium; conditions: 104; remark: listed apart in the source
[50] = test system: Mycobacterium avium; conditions: 104 mc'2 3; remark: listed apart in the source
[51] = test system: Mycobacterium avium; conditions: 104 mc'2 3; remark: listed apart in the source
[52] = test system: Mycobacterium avium; conditions: 104 mc'2 4; remark: listed apart in the source
[53] = test system: Mycobacterium avium; conditions: isolate MAV1; remark: listed apart in the source
Description: Inhibition of multidrug resistance efflux pump in Mycobacterium avium isolate MAV1 assessed as potentiation of ofloxacin-induced antibacterial activity by measuring ofloxacin MIC at 1/4 MIC incubated for 3 days by MTT assay (Rvb = 4 ug/ml)

[54] = test system: Mycobacterium avium; conditions: isolate MAV2; remark: listed apart in the source
Description: Inhibition of multidrug resistance efflux pump in Mycobacterium avium isolate MAV2 assessed as potentiation of ofloxacin-induced antibacterial activity by measuring ofloxacin MIC at 1/2 MIC incubated for 3 days by MTT assay

[55] = test system: Mycobacterium avium; conditions: isolate MAV3; remark: listed apart in the source
[56] = test system: Mycobacterium avium; conditions: isolate MAV3; remark: listed apart in the source
[57] = test system: Mycobacterium avium; conditions: isolate MAV4; remark: listed apart in the source
[58] = test system: Mycobacterium avium; conditions: 104 mc'2 3; remark: listed apart in the source
[59] = test system: Mycobacterium avium; conditions: 104 mc'2 4; remark: listed apart in the source
[60] = test system: Mycobacterium avium; conditions: isolate MAV1; remark: listed apart in the source
[61] = test system: Mycobacterium avium; conditions: isolate MAV1; remark: listed apart in the source
[62] = test system: Mycobacterium avium; conditions: isolate MAV2; remark: listed apart in the source
[63] = test system: Mycobacterium avium; conditions: isolate MAV2; remark: listed apart in the source
[64] = test system: Mycobacterium avium; conditions: isolate MAV3; remark: listed apart in the source
[65] = test system: Mycobacterium avium; conditions: isolate MAV4; remark: listed apart in the source
[66] = test system: Mycobacterium avium subsp. avium ATCC 25291; remark: listed apart in the source
Description: Inhibition of multidrug resistance efflux pump in Mycobacterium avium ATCC 25291 assessed as potentiation of ethidium bromide-induced antibacterial activity by measuring ethidium bromide MIC at 1/4 MIC incubated for 3 days by MTT assay

SMILES: CSc1ccc2c(c1)N(CCC1CCCCN1C)c1ccccc1S2 (stereo unspecified) [THIORIDAZINE]
- MIC [1]: 30 µg/mL (≈ 81 µM)
- MIC [2]: 30 µg/mL (≈ 81 µM)
- MIC [3]: 30 µg/mL (≈ 81 µM)
- MIC [4]: 30 µg/mL (≈ 81 µM)
- MIC [5]: 30 µg/mL (≈ 81 µM)
- MIC [6]: 2 µg/mL (≈ 5.4 µM)
- MIC [7]: 4 µg/mL (≈ 10.8 µM)
- MIC [8]: < 4 µg/mL
- MIC [9]: 256 µg/mL (≈ 691 µM)
- MIC [10]: > 512 µg/mL
- MIC [11]: < 0.031 µg/mL
- MIC [12]: > 512 µg/mL
- MIC [13]: 2 µg/mL (≈ 5.4 µM)
- MIC [14]: 4 µg/mL (≈ 10.8 µM)
- MIC [15]: 1 µg/mL (≈ 2.7 µM)
- MIC [16]: 4 µg/mL (≈ 10.8 µM)
- MIC [17]: 1 µg/mL (≈ 2.7 µM)
- MIC [18]: 2 µg/mL (≈ 5.4 µM)
- MIC [19]: 32 µg/mL (≈ 86.3 µM)
- MIC [20]: < 4 µg/mL
- MIC [21]: > 512 µg/mL
- MIC [22]: > 512 µg/mL
- MIC [23]: < 4 µg/mL
- MIC [24]: 512 µg/mL (≈ 1380 µM)
- MIC [25]: > 512 µg/mL
- MIC [26]: 64 µg/mL (≈ 173 µM)
- MIC [27]: 128 µg/mL (≈ 345 µM)
- MIC [28]: 4 µg/mL (≈ 10.8 µM)
- MIC [29]: 32 µg/mL (≈ 86.3 µM)
- MIC [30]: 64 µg/mL (≈ 173 µM)
- MIC [31]: > 512 µg/mL
- MIC [32]: 32 µg/mL (≈ 86.3 µM)
- MIC [33]: 16 µg/mL (≈ 43.2 µM)
- MIC [34]: > 512 µg/mL
- MIC [35]: 64 µg/mL (≈ 173 µM)
- MIC [36]: 128 µg/mL (≈ 345 µM)
- MIC [37]: 128 µg/mL (≈ 345 µM)
- MIC [38]: 32 µg/mL (≈ 86.3 µM)
- MIC [39]: 2 µg/mL (≈ 5.4 µM)
- MIC [40]: 4 µg/mL (≈ 10.8 µM)
- MIC [41]: 4 µg/mL (≈ 10.8 µM)
- MIC [42]: < 0.031 µg/mL
- MIC [43]: 0.5 µg/mL (≈ 1.35 µM)
- MIC [44]: 0.25 µg/mL (≈ 0.675 µM)
- MIC [45]: 0.25 µg/mL (≈ 0.675 µM)
- MIC [46]: 4 µg/mL (≈ 10.8 µM)
- MIC [47]: 8 µg/mL (≈ 21.6 µM)
- MIC [48]: 4 µg/mL (≈ 10.8 µM)
- MIC [49]: 4 µg/mL (≈ 10.8 µM)
- MIC [50]: < 0.125 µg/mL
- MIC [51]: 8 µg/mL (≈ 21.6 µM)
- MIC [52]: 0.25 µg/mL (≈ 0.675 µM)
- MIC [53]: 1 µg/mL (≈ 2.7 µM)
- MIC [54]: 0.5 µg/mL (≈ 1.35 µM)
- MIC [55]: 8 µg/mL (≈ 21.6 µM)
- MIC [56]: 16 µg/mL (≈ 43.2 µM)
- MIC [57]: 16 µg/mL (≈ 43.2 µM)
- MIC [58]: 12.5 µg/mL (≈ 33.7 µM)
- MIC [59]: 0.78 µg/mL (≈ 2.1 µM)
- MIC [60]: < 0.195 µg/mL
- MIC [61]: 0.78 µg/mL (≈ 2.1 µM)
- MIC [62]: 6.25 µg/mL (≈ 16.9 µM)
- MIC [63]: 12.5 µg/mL (≈ 33.7 µM)
- MIC [64]: 12.5 µg/mL (≈ 33.7 µM)
- MIC [65]: 12.5 µg/mL (≈ 33.7 µM)
- MIC [66]: 25 µg/mL (≈ 67.5 µM)
